Tested on: ACE2-dependent pseudotypes
Type: cell-based

For `Cc1ccc(S(=O)(=O)Nc2ccc(C(F)(F)F)cc2C(=O)Nc2nc(-c3ccc(Br)cc3)cs2)cc1` [XH161-102 (MS102), N-(4-(4-bromophenyl)thiazol-2-yl)-2-((4-methylphenyl)sulfonamido)-5-(trifluoromethyl)benzamide], the “activity in preventing cell entry of ACE2-dependent pseudotypes” value was “enhanced activity”.

— US20260242394A1, “USP2 INHIBITORS AND METHODS OF USING THE SAME FOR THE TREATMENT OF DISEASES” (ICAHN SCHOOL OF MEDICINE AT MOUNT SINAI, priority 2023, published 2026)
